In US11846640B2, “Identification of anticoagulants in a sample” (DSM IP Assets B.V., priority 2013, dated 2023):

How the values were obtained:
Type in all cases: biochemical, human
plasma samples [1] = assay: aPTT (HemosIL aPTT SP) clotting time; details: for Clotting time with aPTT: Table 6, spiked plasma, mean
Experimental: (§1) In order to address the above question, i.e. to determine the nature of an anticoagulant in a sample, a combination of several methods has to be performed, including PiCT® Method 1, PiCT® Method 4, aPTT (HemosIL™ aPTT SP), PT (HemosIL™ PT recombiplastin), and sometimes even a modified PiCT® Method 1 wherein polybrene has been added. In order to simulate this, plasma samples spiked with different levels of anticoagulants were analyzed using the ACL TOP® 500 analyzer. For each drug, a specific pattern was obtained, i.e. clotting times within the RR and clotting times above the RR, depending on the used testing method, which is unique at least for the class of anticoagulant or even for a specific anticoagulant.

plasma samples [2] = assay: PiCT Method 1 with polybrene added, clotting time; details: Table 6, spiked plasma, mean
Description: By the addition of polybrene a distinction can be done, which of the anticoagulants is really present in the sample: if after addition of polybrene the measured clotting times are again back to RR when using the PiCT® Method 1, the sample comprises heparins, such as e.g. UFH or LMWH. Alternatively, if the result is not going back to RR, the sample comprises low concentrations of dabigatran or hirudin. […] The particular clotting times measured for the different anticoagulants are shown in Table 6, which is an example of results obtained in spiked plasma samples.
as §1

normal plasma pool (NPP) = assay: PiCT Method 3 clotting time on ACL TOP 500; details: Table 8B (argatroban), PiCT Method 3, NPP spiked, mean n = 4
Description: The 4 methods (see above) are in more detail described in the Examples. Specific pipetting schemes were designed using NPP spiked with incremental amounts of anticoagulants in order to achieve high reproducibility of the test system, which is required for drug identification including use in a POC system. […] […]-50/I-180/50-S). […] […]-65/I-180/35-S on the ACL TOP® 500 or […]-65/I-180/40-S on the STA Compact® or […]-65/[…]-40 on the BCS® XP. […] […]-70/I-180/40-S on the ACL TOP® 500 or STA Compact®, or […]-60/I-180/45-S on the BCS® XP.

SMILES	Clotting time with aPTT (plasma samples [1]; 50 ng) [s]	Clotting time with aPTT (plasma samples [1]; 200 ng) [s]	aPTT clotting time relative to reference range (RR) (plasma samples [1]; only at higher doses, in the range of 200 ng or more)	Clotting time with PiCT ® Method 1 + polybrene (plasma samples [2]; 0.3 μg) [s]	Clotting time with PiCT ® Method 1 + polybrene (plasma samples [2]; 1.5 μg) [s]	Clotting time (normal plasma pool (NPP); 0.2 μg/ml) [s]	Clotting time (normal plasma pool (NPP); 0.4 μg/ml) [s]	Clotting time (normal plasma pool (NPP); 0.6 μg/ml) [s]	Clotting time (normal plasma pool (NPP); 0.8 μg/ml) [s]	Clotting time (normal plasma pool (NPP); 1.0 μg/ml) [s]	Clotting time (normal plasma pool (NPP); 1.2 μg/ml) [s]	Clotting time (normal plasma pool (NPP); 1.4 μg/ml) [s]	Clotting time (normal plasma pool (NPP); 1.6 μg/ml) [s]	Clotting time (normal plasma pool (NPP); 1.8 μg/ml) [s]	Clotting time (normal plasma pool (NPP); 2.0 μg/ml) [s]	Clotting time with aPTT (plasma samples [1]; 0.3 μg) [s]	Clotting time with aPTT (plasma samples [1]; 1.5 μg) [s]
O=C(NC[C@H]1CN(c2ccc(N3CCOCC3=O)cc2)C(=O)O1)c1ccc(Cl)s1 [rivaroxaban]	34.5	49.6	above the RR														
CC1CNc2c(cccc2S(=O)(=O)N[C@@H](CCCNC(=N)N)C(=O)N2CC[C@@H](C)C[C@@H]2C(=O)O)C1 (some centres unmarked) [argatroban]				85.6	126.4	113	145	162	179	198	204	210	232	234	240	61.7	106.2
